US20230321288A1, “RIBOFLAVIN PHOTOCHEMICAL TREATMENT (RPT)-BASED INACTIVATION METHOD OF PATHOGENS IN BIOLOGICAL LIQUID SAMPLE” (INSTITUTE OF BLOOD TRANSFUSION CHINESE ACADEMY OF MEDICAL …, priority 2020, published 2023)

Key:
[1] = system: E. coli; test: RPT-based inactivation of E. coli in plasma, growth detected by Reed-Muench method (Example 1); assay type: cell-based, Escherichia coli; conditions: 50 μM riboflavin, 15 min, 1 W
Description: In this example, the plasma of healthy blood donors containing 50 μM of riboflavin was irradiated with LED lamp beads in a series of wavelength ranges for 15 min at an irradiation intensity of 1 W. The growth of E. coli in the blood products was then detected by a Reed-Muench method.

[2] = system: apheresis platelets; test: Quality of platelet preservation after RPT (Example 2, Table 1); assay type: cell-based; conditions: for K^+ / MPV / Na^+ / PH: platelets, 50 μM riboflavin, 30 min
Description: (§1) In this example, the apheresis platelets containing 50 μM of riboflavin were separately irradiated with LED lamp beads with a wavelength of 395 nm±5 nm and fluorescent tubes with a wavelength of 309 nm to 313 nm for 30 min at irradiation intensities of 1 W (395 nm f 5 nm) and 9 W (309 nm to 313 nm), respectively. The growth of Staphylococcus aureus in the blood products was then detected by a Reed-Muench method.
The properties and component contents of the platelet samples in the three groups of experiments were compared, and the results were as follows: […]

[3] = system: Staphylococcus aureus; test: RPT-based inactivation of Staphylococcus aureus in apheresis platelets, growth detected by Reed-Muench method (Example 2); assay type: cell-based; conditions: 50 μM riboflavin, 30 min
Description: as §1

Cc1cc2nc3c(=O)[nH]c(=O)nc-3n(C[C@H](O)[C@H](O)[C@H](O)CO)c2cc1C [riboflavin]
pathogen inactivation effect on E. coli ([1]; LED 365 nm ± 5 nm): desirable pathogen inactivation effect
pathogen inactivation effect on E. coli ([1]; LED 395 nm±5 nm): desirable pathogen inactivation effect
damage to the platelet samples [2]: significantly less damage
K^+ ([2]; 309 nm to 313 nm, 9 W): 3 mmol/L
MPV ([2]; 309 nm to 313 nm, 9 W): 12.1
Na^+ ([2]; 309 nm to 313 nm, 9 W): 151 mmol/L
PH ([2]; 309 nm to 313 nm, 9 W): 7.26
K^+ ([2]; 395 nm ± 5 nm, 1 W): 2.7 ± 0^ mmol/L
MPV ([2]; 395 nm ± 5 nm, 1 W): 9.5 ± 0^
Na^+ ([2]; 395 nm ± 5 nm, 1 W): 153.6 ± 0.49 mmol/L
PH ([2]; 395 nm ± 5 nm, 1 W): 7.45 ± 0.01
inactivation of S. aureus ([3]; 309 nm to 313 nm fluorescent tubes, 9 W): could inactivate the S. aureus
inactivation effect on S. aureus compared with 309 nm to 313 nm fluorescent tubes ([3]; 395 nm±5 nm LED): better
inactivation of S. aureus ([3]; 395 nm±5 nm LED, 1 W): could inactivate the S. aureus
